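These data come from cells grown in 96-well plates and exposed to compound for 48 hours at five concentrations. TGI is the concentration that stops growth completely.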
Legend:
Experiment in all cases: NCI-60 cell line screen, 48 h
[1] = tested on: MCF7 breast
[2] = tested on: KM12 colon
[3] = tested on: RXF 393 renal
[4] = tested on: SR leukemia
[5] = tested on: OVCAR-5 ovarian
[6] = tested on: HCC-2998 colon
[7] = tested on: SNB-75 CNS
[8] = tested on: MDA-N
[9] = tested on: HL-60(TB) leukemia
[10] = tested on: SK-MEL-5 melanoma
[11] = tested on: NCI-H23 lung
[12] = tested on: HT29 colon
[13] = tested on: NCI-H460 lung
[14] = tested on: MALME-3M melanoma
[15] = tested on: OVCAR-8 ovarian
[16] = tested on: SF-268 CNS
[17] = tested on: UACC-62 melanoma
[18] = tested on: MDA-MB-435
[19] = tested on: PC-3 prostate
[20] = tested on: K-562 leukemia
[21] = tested on: MDA-MB-231 breast
[22] = tested on: RPMI-8226 leukemia
[23] = tested on: HOP-62 NSCLC
[24] = tested on: IGROV1 ovarian
[25] = tested on: HCT-116 colon
[26] = tested on: 786-0 renal
[27] = tested on: NCI-H522 lung
[28] = tested on: SW-620 colon
[29] = tested on: SK-OV-3 ovarian
[30] = tested on: NCI-H226 lung
[31] = tested on: SF-295 CNS
[32] = tested on: MOLT-4 leukemia
[33] = tested on: UO-31 renal
[34] = tested on: UACC-257 melanoma
[35] = tested on: SK-MEL-2 melanoma
[36] = tested on: SK-MEL-28 melanoma
[37] = tested on: COLO 205 colon
[38] = tested on: SF-539 CNS
[39] = tested on: M14 melanoma
[40] = tested on: BT-549 breast
[41] = tested on: HOP-92 NSCLC
[42] = tested on: LOX IMVI melanoma
[43] = tested on: TK-10 renal
[44] = tested on: A498 renal
[45] = tested on: CCRF-CEM leukemia
[46] = tested on: T-47D breast
[47] = tested on: U251 CNS
[48] = tested on: NCI/ADR-RES ovarian
[49] = tested on: HS 578T breast
[50] = tested on: HCT-15 colon
[51] = tested on: EKVX NSCLC
[52] = tested on: DU-145 prostate
[53] = tested on: SNB-19 CNS
[54] = tested on: SN12C renal
[55] = tested on: OVCAR-3 ovarian
[56] = tested on: OVCAR-4 ovarian
[57] = tested on: ACHN renal
[58] = tested on: CAKI-1 renal
[59] = tested on: A549 NSCLC
[60] = tested on: KM20L2 colon
[61] = tested on: DMS 114 small cell lung
[62] = tested on: LXFL 529 NSCLC
[63] = tested on: SNB-78 CNS

With `O=C1c2c(Br)sc(Br)c2[C@@H](NC(=O)C(F)(F)F)C1Br` (some centres undefined) the TGI [1] was 15.6 µM, the TGI [2] was 17.7 µM and the TGI [3] was 5.22 µM. The TGI [4] was 5.3 µM, the TGI [5] was 24.4 µM and the TGI [6] was 7.8 µM. The TGI [7] was 16.1 µM, the TGI [8] was 9.14 µM and the TGI [9] was 1.59 µM. For the same compound, the TGI [10] was 7.88 µM, the TGI [11] was 7.14 µM and the TGI [12] was 5.77 µM. The TGI [13] was 31 µM, the TGI [14] was 4.88 µM and the TGI [15] was 7.73 µM. It also gave a TGI [16] of 15.2 µM, a TGI [17] of 14.6 µM and a TGI [18] of 5.27 µM. The TGI [19] was 15.1 µM, the TGI [20] was 4.17 µM and the TGI [21] was 6.06 µM. The TGI [22] was 5.92 µM, the TGI [23] was 28.2 µM and the TGI [24] was 10.5 µM. The TGI [25] was 2.76 µM, the TGI [26] was 5.13 µM and the TGI [27] was 5.07 µM. The TGI [28] was > 21.9 µM, the TGI [29] was 32.8 µM and the TGI [30] was 15.1 µM. It also gave a TGI [31] of 31.6 µM, a TGI [32] of 5.32 µM and a TGI [33] of 12.5 µM. It also gave a TGI [34] of 3.97 µM, a TGI [35] of 27.5 µM and a TGI [36] of 8.51 µM. For the same compound, the TGI [37] was 4.02 µM, the TGI [38] was 6.82 µM and the TGI [39] was 6.23 µM. The TGI [40] was 10.1 µM, the TGI [41] was 6.69 µM and the TGI [42] was 3.24 µM. For the same compound, the TGI [43] was 30.5 µM, the TGI [44] was 28.7 µM and the TGI [45] was 5.64 µM. The TGI [46] was 14.7 µM, the TGI [47] was 9.08 µM and the TGI [48] was 11 µM. For the same compound, the TGI [49] was > 63.9 µM, the TGI [50] was 4.61 µM and the TGI [51] was 11.6 µM. It also gave a TGI [52] of 18.3 µM, a TGI [53] of 25.9 µM and a TGI [54] of 8.33 µM. It also gave a TGI [55] of 9.99 µM, a TGI [56] of 5.33 µM and a TGI [57] of 6.1 µM. For the same compound, the TGI [58] was 8.82 µM and the TGI [59] was 32.7 µM.

`Cc1ccccc1C(=O)C1CCCCC1O` (centres undefined) was tested, and the TGI [2] was > 100 µM, the TGI [3] was > 100 µM and the TGI [60] was > 100 µM. The TGI [5] was > 100 µM, the TGI [6] was > 100 µM and the TGI [7] was > 100 µM. The TGI [9] was > 100 µM, the TGI [10] was > 100 µM and the TGI [11] was > 100 µM. The TGI [14] was > 100 µM, the TGI [16] was > 100 µM and the TGI [17] was > 100 µM. The TGI [20] was > 100 µM, the TGI [23] was > 100 µM and the TGI [24] was > 100 µM. For the same compound, the TGI [25] was > 100 µM, the TGI [26] was > 100 µM and the TGI [28] was > 100 µM. For the same compound, the TGI [61] was > 100 µM, the TGI [29] was > 100 µM and the TGI [30] was > 100 µM. For the same compound, the TGI [32] was > 100 µM, the TGI [33] was > 100 µM and the TGI [35] was > 100 µM. The TGI [39] was > 100 µM, the TGI [41] was > 100 µM and the TGI [42] was > 100 µM. For the same compound, the TGI [43] was > 100 µM, the TGI [47] was > 100 µM and the TGI [62] was > 100 µM. For the same compound, the TGI [50] was > 100 µM, the TGI [51] was > 100 µM and the TGI [53] was > 100 µM. For the same compound, the TGI [63] was > 100 µM, the TGI [54] was > 100 µM and the TGI [55] was > 100 µM. The TGI [56] was > 100 µM, the TGI [57] was > 100 µM and the TGI [58] was > 100 µM. The TGI [59] was > 100 µM.

Reference: PubChem BioAssay (NCI)
